Experimental data reported in patent US9555016B2, “Lytic agents for use in treating intravascular clots” (priority 2013, dated 2017).
Structures can show the parent of a compound that is named as a salt.

Legend:
[1] = test system: acute clots, formed from ovine blood; assay: Mechanical compression testing (Texture Analyzer) of acute clots; settings: acute blood clot, after 1 hour of treatment
Description: (§1) Acute clots, formed from ovine blood, were formed and treated with guanidine hydrochloride. Clots were formed following the general procedures set forth in Luo et al., “Creation Of Fibrinogen-Enhanced Experimental Blood Clots To Evaluate Mechanical Thrombectomy Devices For Treatment Of Acute Stroke: An In Vitro Study,” J. Vase. Interv. Radiol. 2012 August; 23(8): 1077-83. Briefly, ovine blood was contacted with about […] thrombin and about 25 mM calcium chloride. Additional acute clots were formed where about 40 mg/ml fibrinongen was first added to the ovine blood.
Guanidine chloride at concentrations of 6 M and 12 M in 0.9% sodium chloride were added to the clots, with untreated clots and clots treated with 0.2 mg/ml tPA used as controls.
The clots were subjected to mechanical testing to determine the effects of the guanidine chloride on the hardness of the clot, as well as its elasticity and lytic resistance. Briefly, a Texture Analyzer manufactured by Texture Technologies Corporation, running Exponent Software from Texture Technologies Corporation was used. […] Clot samples having a thickness of about 1 mm were prepared and placed underneath the probe, until the probe was about 3 mm above the sample surface. The Texture Analyzer subjected the sample to a 0.5 mm compression test, and then a 1 mm compression test. […]

[2] = test system: acute clots, formed from ovine blood; assay: Gravimetric testing of lytic resistance of acute clots
Description: as §1
Gravimetric testing to determine lytic resistance of the clots was carried out as follows. Briefly, an incubation shaker was heated to about 37° C. Clots were allowed to rest at a temperature of about 4° C. for 24 hours prior to testing. About 200-300 mg of clot samples were weighed out, with 1 sample placed per well in a 24 well plate. Weights were recorded.
Guanidine hydrochloride solutions were prepared as follows:
1. 12 M Guanidine hydrochloride (GH): 22.93 g GH+20 ml 0.9% sodium chloride
2. 6 M GH: 10 ml 12 M GH+10 ml 0.9% sodium chloride
3. 3 M GH: 10 ml 6 M GH+10 ml 0.9% sodium chloride
4. 1 M GH: 10 ml 3 M GH+20 ml 0.9% sodium chloride
6. 0.5 M GH: 10 ml 1 M GH+10 ml 0.9% sodium chloride
About 1 ml of each solution was placed in each well. […] The weight was recorded at each time point. […]

[3] = test system: chronic clots, formed of collagen; assay: Mechanical compression testing (Texture Analyzer) of chronic collagen clots
Description: The clots were subjected to mechanical testing to determine the effects of the guanidine chloride on the hardness of the clot, as well as its elasticity and lytic resistance. Briefly, a Texture Analyzer manufactured by Texture Technologies Corporation, running Exponent Software from Texture Technologies Corporation was used. […] Clot samples having a thickness of about 1 mm were prepared and placed underneath the probe, until the probe was about 3 mm above the sample surface. The Texture Analyzer subjected the sample to a 0.5 mm compression test, and then a 1 mm compression test. Chronic clots, formed of collagen, were formed and treated with guanidine hydrochloride. Chronic collagen clots were formed by reverse dialysis, as generally disclosed in Knight, et al., “In vitro formation by reverse dialysis of collagen gels containing highly oriented arrays of fibrils,” J. Biomed. Mater. Res., 41, 185-191 (1998). Briefly, about 1.5 grams collagen was combined with about 45 ml distilled water and 5 ml of 0.5 M acetic acid. A dialysis solution was prepared with 2% polyethylene glycol (PEG) in about 10 mM of a Tris base buffer (2000 ml distilled water added to 40 grams PEG and 2.422 grams Tris Base (also known as Trimethylol Aminomethane, Tris(hydroxymethyl)aminomethane)). […] Fibril formation was allowed to proceed over a period of about 48 hours, at which time the collagen was collected and stored in about 10 mM Tris-base solution at a pH of about 7.4 and stored at about 4° C. Additional chronic clots were prepared by combining collagen gels produced as above, and then adding genipin thereto (about 5 mM genipin solution in about 0.9% sodium chloride). Chronic clots thus formed were subjected to the hardness and gravimetric tests described above in Example 1.

[4] = test system: chronic clots, formed of collagen; assay: Gravimetric testing of lytic resistance of chronic collagen clots
Description: Gravimetric testing to determine lytic resistance of the clots was carried out as follows. Briefly, an incubation shaker was heated to about 37° C. Clots were allowed to rest at a temperature of about 4° C. for 24 hours prior to testing. About 200-300 mg of clot samples were weighed out, with 1 sample placed per well in a 24 well plate. Weights were recorded. About 1 ml of each solution was placed in each well. The plate was then placed into the incubation shaker and shaken at 160 rpm for 1 hour and 3 hours. The weight was recorded at each time point. Lytic resistance was defined as follows, as the percent clot remaining: [formula] Chronic clots, formed of collagen, were formed and treated with guanidine hydrochloride. Chronic collagen clots were formed by reverse dialysis, as generally disclosed in Knight, et al., “In vitro formation by reverse dialysis of collagen gels containing highly oriented arrays of fibrils,” J. Biomed. Mater. Res., 41, 185-191 (1998). Briefly, about 1.5 grams collagen was combined with about 45 ml distilled water and 5 ml of 0.5 M acetic acid. A dialysis solution was prepared with 2% polyethylene glycol (PEG) in about 10 mM of a Tris base buffer (2000 ml distilled water added to 40 grams PEG and 2.422 grams Tris Base (also known as Trimethylol Aminomethane, Tris(hydroxymethyl)aminomethane)). […]

[5] = chronic clots prepared without genipin

Compound: N=C(N)N [guanidine hydrochloride]
- effect on hardness (summary, FIG. 2) [1]: significant effect on the hardness
- clot weight (summary of gravimetric testing) ([2]; acute blood-based clot models, increased concentrations): did not show a decrease in weight
- lytic resistance versus molar concentration ([2]; acute clots, increasing molar concentration of guanidine hydrochloride): lytic resistance decreased upon increase in the molar concentration
- elasticity after treatment [3, 5]: dissolved/broken down to a point where elasticity could not be measured
- hardness after treatment [3, 5]: dissolved/broken down to a point where hardness could not be measured
- effect on hardness (summary, FIG. 3) ([3]; chronic collagen clots): significant decrease in hardness
- lytic resistance versus molar concentration ([4]; chronic clots, increasing molar concentration of guanidine hydrochloride): lytic resistance decreased upon increase in the molar concentration
- dissolution of clot (summary) ([4]; chronic collagen-based clots, after 1 hour, even at low concentrations): dissolve most of the collagen clot models
